ChEMBL document CHEMBL5226367, “Synthesis, Optical Properties, and Antiproliferative Evaluation of NBD-Triterpene Fluorescent Probes” (J Nat Prod, 2023)
Calls of active or inactive are those of the source. No cut-off for these calls is given here.

What was measured:
HepG2 [1] = experiment: Potency index, ratio of oleanolic acid IC50 to test compound IC50 for cytotoxicity against human HepG2 cells assessed as reduction in cell viability incubated for 72 hrs by MTT assay; format: functional
B16-F10 [2] = experiment: Cytotoxicity against mouse B16-F10 cells assessed as decrease in cell density at IC50 concentration; format: functional, cell-based; details: time 30-1440 min, TDE = time-dependent effect
[3] = Drug localization in cytoplasm of human HepG2 cells assessed as green fluorescence at IC50 concentration incubated for 30 min to 24 hrs by DAPI staining based confocal microscopic analysis; format: ADME, subcellular; details: time 30-1440 min
[4] = Drug localization in cytoplasm of human HT-29 cells assessed as green fluorescence at IC50 concentration incubated for 30 min to 24 hrs by DAPI staining based confocal microscopic analysis; format: ADME, subcellular; details: time 30-1440 min
HT-29 [5] = experiment: Cytotoxicity against human HT-29 cells assessed as decrease in cell density at IC50 concentration; format: functional, cell-based; details: time 30-1440 min, TDE = time-dependent effect
HT-29 [6] = experiment: Induction of apoptosis in human HT-29 cells at IC50 concentration incubated for 24 hrs by Annexin V-FITC/PI staining based flow cytometric analysis; format: functional, cell-based
B16-F10 [7] = experiment: Potency index, ratio of maslinic acid IC50 to test compound IC50 for cytotoxicity against mouse B16-F10 cells assessed as reduction in cell viability incubated for 72 hrs by MTT assay; format: functional
HepG2 [8] = experiment: Potency index, ratio of maslinic acid IC50 to test compound IC50 for cytotoxicity against human HepG2 cells assessed as reduction in cell viability incubated for 72 hrs by MTT assay; format: functional
B16-F10 [9] = experiment: Potency index, ratio of oleanolic acid IC50 to test compound IC50 for cytotoxicity against mouse B16-F10 cells assessed as reduction in cell viability incubated for 72 hrs by MTT assay; format: functional
[10] = Drug localization in cytoplasm of mouse B16-F10 cells assessed as green fluorescence at IC50 concentration incubated for 30 min to 24 hrs by DAPI staining based confocal microscopic analysis; format: ADME, subcellular; details: time 30-1440 min
HepG2 [11] = experiment: Induction of apoptosis in human HepG2 cells at IC50 concentration incubated for 24 hrs by Annexin V-FITC/PI staining based flow cytometric analysis; format: functional, cell-based
HepG2 [12] = experiment: Cytotoxicity against human HepG2 cells assessed as decrease in cell density at IC50 concentration; format: functional, cell-based; details: time 30-1440 min, TDE = time-dependent effect
HT-29 [13] = experiment: Potency index, ratio of oleanolic acid IC50 to test compound IC50 for cytotoxicity against human HT-29 cells assessed as reduction in cell viability incubated for 72 hrs by MTT assay; format: functional
B16-F10 [14] = experiment: Induction of apoptosis in mouse B16-F10 cells at IC50 concentration incubated for 24 hrs by Annexin V-FITC/PI staining based flow cytometric analysis; format: functional, cell-based
HT-29 [15] = experiment: Potency index, ratio of maslinic acid IC50 to test compound IC50 for cytotoxicity against human HT-29 cells assessed as reduction in cell viability incubated for 72 hrs by MTT assay; format: functional
B16-F10 [16] = experiment: Induction of apoptosis in mouse B16-F10 cells assessed as total apoptotic cells at IC50 concentration incubated for 72 hrs by Annexin V-FITC/PI staining based flow cytometric analysis relative to control; format: functional
HT-29 [17] = experiment: Induction of apoptosis in human HT-29 cells assessed as total apoptotic cells at IC50 concentration incubated for 72 hrs by Annexin V-FITC/PI staining based flow cytometric analysis relative to control; format: functional
HepG2 [18] = experiment: Induction of apoptosis in human HepG2 cells assessed as total apoptotic cells at IC50 concentration incubated for 72 hrs by Annexin V-FITC/PI staining based flow cytometric analysis relative to control; format: functional

Drug uptake [3]	Drug uptake [4]	Drug uptake [10]	SMILES	Ratio IC50 (HepG2 [1])	Activity (B16-F10 [2])	Activity (HT-29 [5])	Activity (HT-29 [6])	Ratio IC50 (B16-F10 [7])	Ratio IC50 (HepG2 [8])	Ratio IC50 (B16-F10 [9])	Activity (HepG2 [11])	Activity (HepG2 [12])	Ratio IC50 (HT-29 [13])	Activity (B16-F10 [14])	Ratio IC50 (HT-29 [15])	Activity (B16-F10 [16]) [%]	Activity (HT-29 [17]) [%]	Activity (HepG2 [18]) [%]
Active	Active	Active	CC1(C)CC[C@]2(C(=O)O)CC[C@]3(C)C(=CC[C@@H]4[C@@]5(C)C[C@@H](OC(=O)CCCCCNc6ccc([N+](=O)[O-])c7nonc67)[C@H](O)C(C)(C)[C@@H]5CC[C@]43C)[C@@H]2C1	15	Tde	Tde	Active	7.4	7.1	22	Active	Tde	65	Active	5	–	–	–
Active	Active	Active	CC1(C)CC[C@]2(C(=O)O)CC[C@]3(C)C(=CC[C@@H]4[C@@]5(C)CC[C@H](OC(=O)CCCCCNc6ccc([N+](=O)[O-])c7nonc67)C(C)(C)[C@@H]5CC[C@]43C)[C@@H]2C1	17	Tde	Tde	Active	15	7.9	44	Active	Tde	22	Active	1.7	31	31	31
